Experimental findings from patent publication US11028041B2, “Second generation GRP94-selective inhibitors” (University of Kansas, priority 2017, dated 2021) are described below.

One test concerns the target Hsp90α (Homo sapiens (Human), UniProt P07900). Put plainly: Fluorescence polarization assay against Hsp90α. Format: binding. As to conditions: FITC-GDA tracer, 100 μM highest concentration tested, average of two independent experiments ± SEM, read-out: Apparent Kd Hsp90α. As to the method:
Fluorescence Polarization. The assay was performed in 96-well black, flat-bottom plates with a final volume of 100 μL. 25 μL of assay buffer (20 mM HEPES, pH 7.3, 50 mM KCl, 5 mM MgCl2, 20 mM Na2MoO4, 2 mM DTT, 0.1 mg/mL BGG, and 0.01% NP-40) were added, followed by 25 μL of assay buffer containing 6 nM FITC-GDA (fluorescent tracer, stock in DMSO, diluted in assay buffer) and 50 μL of assay buffer containing 10 nM of either Grp94 or Hsp90α were added to each well. For each plate, wells containing buffer only (background), tracer in buffer only (low polarization control) and protein, tracer, and 1% DMSO (final concentration, high polarization control) were included. Compounds were then added with a final concentration of DMSO=1%. Plates were incubated at 4° C. with rocking for 24 h. […] Polarization values were correlated to % tracer bound and compound concentrations.
On the technique in general: Fluorescence polarisation rises when a labelled molecule tumbles more slowly, as on binding a larger partner.

Test [1] has as its system MDA-MB-231 cells. Put plainly: Anti-proliferation MTS/PMS assay, MDA-MB-231. Format: cell-based. As to conditions: Homo sapiens, 72 h, average of two independent experiments ± SEM. As to the method:
(§1) Compounds or vehicle were administered in DMSO (1% DMSO final concentration) and the plates were placed back in the incubator. After 72 h, the % viable cells were determined using the MTS/PMS cell proliferation kit (Promega) per the manufacturer's instructions. Cells treated with vehicle were normalized to 100% viable and compound treated wells were adjusted accordingly.

The subject of test [2] is PC3-MM2 cells. Put plainly: Anti-proliferation MTS/PMS assay, PC3-MM2. Type of test: cell-based. The following applies: Homo sapiens, PC3MM2, 72 h, average of two independent experiments ± SEM. As to the method:
as §1

The test system of test [3] is SK-MEL-28 cells. Put plainly: Anti-proliferation MTS/PMS assay, SK-MEL-28. The following applies: Homo sapiens, 72 h, average of two independent experiments ± SEM. Type of test: cell-based. As for the experimental part: as §1
For test [4], the system named is A549 cells. Put plainly: Anti-proliferation MTS/PMS assay, A549. Format: cell-based. As to conditions: Homo sapiens, 72 h, average of two independent experiments ± SEM. As to the method: as §1
In test [5] the test system is MDA-MB-231 cells. As to conditions: 500 nM, after 24 h. As for the experimental part:
(§2) Wound Healing Scratch Assay. Cells were counted via Trypan blue exclusion and seeded in 12-well plates at 200,000 cells/mL/well and returned to the incubator for 24 h. Scratches were made with a 0.1-10 μL pipette tip, then cells were washed with PBS and fresh media was added. […] Plates were returned to the incubator until 24 h pictures were taken. Images were processed and % migration determined via ImageJ. All experiments were performed in quadruplicate.

The test system of test [6] is PC3-MM2 cells. As to conditions: 500 nM, after 24 h. As for the experimental part: as §2
In test [7] the test system is SK-MEL-28 cells. Put plainly: Wound healing scratch assay, SK-MEL-28. Format: cell-based. As to conditions: after 24 h. As to the method:
(§3) Cell Culture. […] Wound Healing Scratch Assay. […] Images were processed and % migration determined via ImageJ. All experiments were performed in quadruplicate.

Test [8] relates to A549 cells. Put plainly: Wound healing scratch assay, A549. The following applies: 500 nM, 24 h. Format: cell-based. As to the method: as §3
The next test concerns Akt. Put plainly: Western blot analysis, cytosolic Hsp90-dependent client protein Akt. The following applies: MDA-MB-231, PC3-MM2, SK-MEL-28, A549; 24 h; geldanamycin at 0.5 μM. Type of test: cell-based.
In a further test the test system is Hsp70. Put plainly: Western blot analysis, Hsp70 induction. Format: cell-based. As to conditions: MDA-MB-231, PC3-MM2, SK-MEL-28, A549; 24 h; geldanamycin at 0.5 μM. Background: A western blot detects proteins with antibodies after separation by electrophoresis.

A value given as a limit tells only on which side of the number the result lay.

As usually defined, the GI50 is the concentration at which growth is held to half of that of the control. Low readings indicate greater sensitivity of the cells, high ones lower sensitivity of the cells.

Experimental for Akt: (§4) Western Blot Analysis. […] Cells were harvested in cold PBS and lysed using MPER (Thermo Scientific) supplemented with protease inhibitors (Roche) according the manufacturer's instructions. Cell lysates were obtained by centrifugation at 15,000 rpm for 10 min at 4° C. Protein concentrations were determined using the Pierce BCA assay kit following the manufacturer's instructions. Equal amounts of protein were separated via gel electrophoresis under reducing conditions (10% acrylamide gels) then transferred to PVDF membranes and immunoblotted with the corresponding primary antibodies. Membranes were then incubated with the correct HRP-labeled secondary antibody, developed with a chemiluminescent substrate, and visualized.
Experimental for Hsp70: as §4

Consider `COC(=O)c1c(O)cc(O)c(Cl)c1CCc1cc(O)ccc1Cc1ccccc1` [Compound 22, methyl 2-(2-benzyl-5-hydroxyphenethyl)-3-chloro-4,6-dihydroxybenzoate], for which the Kd at Hsp90α stood at 2.1 ± 0.1 µM.

With `COC(=O)c1c(O)cc(O)c(Cl)c1CCc1ccccc1Cc1ccc(F)cc1` [Compound 30, methyl 3-chloro-2-(2-(4-fluorobenzyl)phenethyl)-4,6-dihydroxybenzoate], the concentration for 50% growth inhibition (GI50) in the test on MDA-MB-231 cells [1] stood at 22.4 ± 1.9 µM; in the test with PC3-MM2 cells [2] it was 18.3 ± 2.3 µM; with SK-MEL-28 cells [3], 16.6 ± 1.2 µM; with A549 cells [4] it was 16.7 ± 1.2 µM. For the same molecule, the “% migration” value with MDA-MB-231 cells [5] and in the test with PC3-MM2 cells [6] was 38-40% each time. Besides, the effect on migration entry in the test on SK-MEL-28 cells [7] was “demonstrated a susceptibility to Grp94 inhibition”. For the same molecule, the anti-migratory effect entry with A549 cells [8] is listed as “demonstrated an anti-migratory effect”. Also, in the test on Akt, the “degradation of Akt” value is listed as “did not induce the degradation of Akt”. Moreover, the “induction of Hsp70” value in the test on Hsp70 was “nor did it result in the induction of Hsp70”.

Consider `COC(=O)c1c(O)cc(O)c(Cl)c1CCc1ccccc1Cc1cccc(Cl)c1` [Compound 28, methyl 3-chloro-2-(2-(3-chlorobenzyl)phenethyl)-4,6-dihydroxybenzoate], for which, on Hsp90α, the Kd turned out to be 44.6 ± 2 µM.

Take `COC(=O)c1c(O)cc(O)c(Cl)c1CCc1cccc(Cc2ccccc2)c1` [Compound 7, methyl 2-(3-benzylphenethyl)-3-chloro-4,6-dihydroxybenzoate]: the Kd at Hsp90α was greater than 100 µM.

As for `COC(=O)c1c(O)cc(O)c(Cl)c1CCc1ccc(OC)cc1Cc1ccccc1` [Compound 17, methyl 2-(2-benzyl-4-methoxyphenethyl)-3-chloro-4,6-dihydroxybenzoate], the Kd at Hsp90α came out at 2.6 ± 0.6 µM.

In the case of `COC(=O)c1c(O)cc(O)c(Cl)c1CCc1ccccc1Cc1ccccc1OC` [Compound 26, methyl 3-chloro-4,6-dihydroxy-2-(2-(2-methoxybenzyl)phenethyl)benzoate], the Kd at Hsp90α was greater than 100 µM.

Regarding `COC(=O)c1c(O)cc(O)c(Cl)c1CCc1ccc(O)cc1Cc1ccccc1` [Compound 23, methyl 2-(2-benzyl-4-hydroxyphenethyl)-3-chloro-4,6-dihydroxybenzoate], the Kd at Hsp90α is 0.92 ± 0.03 µM.

As to `COC(=O)c1c(O)cc(O)c(Cl)c1CCc1ccccc1Cc1ccccc1Cl` [Compound 27, methyl 3-chloro-2-(2-(2-chlorobenzyl)phenethyl)-4,6-dihydroxybenzoate], on Hsp90α, the Kd was greater than 100 µM.

In the case of `COC1=C2C[C@@H](C)C[C@H](OC)[C@H](O)[C@@H](C)/C=C(\C)[C@H](OC(N)=O)[C@@H](OC)/C=C\C=C(/C)C(=O)NC(=CC1=O)C2=O` [geldanamycin, reference compound], the “degradation of Akt” value in the test with Akt is recorded as “induced the degradation of Akt”. Moreover, in the test on Hsp70, the “induction of Hsp70” value is “increased the levels of Hsp70”.

In the case of `CCOc1ccccc1Cc1ccccc1CCc1c(Cl)c(O)cc(O)c1C(=O)OC` [Compound 25, methyl 3-chloro-2-(2-(2-ethoxybenzyl)phenethyl)-4,6-dihydroxybenzoate], on Hsp90α, the Kd was greater than 100 µM.

With `COC(=O)c1c(O)cc(O)c(Cl)c1CCc1ccccc1Cc1ccc(Cl)cc1` [Compound 29, methyl 3-chloro-2-(2-(4-chlorobenzyl)phenethyl)-4,6-dihydroxybenzoate], the Kd on Hsp90α is greater than 100 µM.

As for `COC(=O)c1c(O)cc(O)c(Cl)c1CCc1cc(OC)ccc1Cc1ccccc1` [Compound 16, methyl 2-(2-benzyl-5-methoxyphenethyl)-3-chloro-4,6-dihydroxybenzoate], the Kd on Hsp90α was 2.2 ± 0.2 µM.

Take `COC(=O)c1c(O)cc(O)c(Cl)c1CCc1cccc(O)c1Cc1ccccc1` [Compound 24, methyl 2-(2-benzyl-3-hydroxyphenethyl)-3-chloro-4,6-dihydroxybenzoate]: the Kd at Hsp90α is 2 ± 0.2 µM.

Consider `COC(=O)c1c(O)cc(O)c(Cl)c1CCc1cccc(OC)c1Cc1ccccc1` [Compound 18, methyl 2-(2-benzyl-3-methoxyphenethyl)-3-chloro-4,6-dihydroxybenzoate], for which, at Hsp90α, the Kd was 13.7 ± 1.4 µM.

`COC(=O)c1c(O)cc(O)c(Cl)c1CCc1cc(N)ccc1Cc1ccccc1` [Compound 19, methyl 2-(5-amino-2-benzylphenethyl)-3-chloro-4,6-dihydroxybenzoate]: on Hsp90α, the Kd was determined as 1 ± 0.1 µM.

For `COC(=O)c1c(O)cc(O)c(Cl)c1CCc1ccccc1Cc1ccccc1` [Compound 6, methyl 2-(2-benzylphenethyl)-3-chloro-4,6-dihydroxybenzoate], on Hsp90α, the Kd was determined as 20.7 ± 0.5 µM.

`COC(=O)c1c(O)cc(O)c(Cl)c1CCc1ccc(N)cc1Cc1ccccc1` [Compound 20, methyl 2-(4-amino-2-benzylphenethyl)-3-chloro-4,6-dihydroxybenzoate]: the Kd at Hsp90α was found to be 0.34 ± 0.07 µM.
